The target of assay [1] is T1, RORγt ligand-binding domain (RORγt-LBD) (Homo sapiens, UniProt P51449).
T1 construct: 20 nM recombinantly expressed RORγ-LBD fused to GST
T1 sequence (P51449 269-508 limits assumed): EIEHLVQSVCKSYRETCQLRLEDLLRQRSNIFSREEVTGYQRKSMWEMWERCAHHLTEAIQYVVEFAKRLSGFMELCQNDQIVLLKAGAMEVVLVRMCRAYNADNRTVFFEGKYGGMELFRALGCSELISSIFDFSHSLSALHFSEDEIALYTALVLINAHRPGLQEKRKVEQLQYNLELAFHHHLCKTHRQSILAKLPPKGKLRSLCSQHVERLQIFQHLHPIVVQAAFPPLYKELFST
The assay can be described thus: Time-resolved FRET (TR-FRET) RORγt coactivator assay. The following applies: GST-RORγ-LBD, biotinylated RIP140 peptide, coactivator displacement. The format is biochemical.

The target in the next assay is T2, human RORγt (Homo sapiens, UniProt P51449).
T2 sequence (P51449 1-497 isoform P51449-2): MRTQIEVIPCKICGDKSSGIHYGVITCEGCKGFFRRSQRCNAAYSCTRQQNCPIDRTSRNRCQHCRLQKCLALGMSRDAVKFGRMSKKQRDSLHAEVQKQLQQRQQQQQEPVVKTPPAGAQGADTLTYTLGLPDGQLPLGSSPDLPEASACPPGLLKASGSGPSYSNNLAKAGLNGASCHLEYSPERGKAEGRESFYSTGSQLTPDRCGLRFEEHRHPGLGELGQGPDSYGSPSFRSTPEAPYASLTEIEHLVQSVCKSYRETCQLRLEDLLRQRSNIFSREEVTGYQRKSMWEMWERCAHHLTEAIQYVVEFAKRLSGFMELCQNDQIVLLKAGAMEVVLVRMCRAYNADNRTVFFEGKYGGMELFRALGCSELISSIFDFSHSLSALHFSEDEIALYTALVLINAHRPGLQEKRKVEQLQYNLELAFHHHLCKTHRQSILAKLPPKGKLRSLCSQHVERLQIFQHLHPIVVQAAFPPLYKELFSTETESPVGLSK
The assay can be described thus: IL-17 secretion from EL4 murine lymphoma overexpressing human RORγt. In kind it is cell-based. Also noted: expressed in transfected cells; host or cells: EL-4 murine lymphoma. The following applies: IL-17 secretion inhibition, PMA and ionomycin stimulation, 24 h. The procedure:
Murine EL-4 lymphoma cell line overexpressing human RORγt was used in this functional assay to assess compound ability to inhibit IL-17 cytokine secretion.
EL-4 cells are maintained in a standard culture medium RPMI supplemented with 10% fetal calf serum, 1% sodium pyruvate, 1% essential amino acids and 1% antibiotics at 37° C. in a humidified atmosphere of 5% CO2 and 95% air. Culture medium was changed every 2 days. EL4 cells were transfected with a plasmid encoding hRORγt (sequence identical to published sequence NM 001001523). […] Briefly, 1 μg of DNA/1 million cells was served to transfect EL-4 cells. Cell/DNA suspension was transferred into certified cuvette and the electroporation of RORγt plasmid was carried out using appropriate Nucleofector® program.
Cells were seeded in 96 well plates at a density of 150000 cells/well then treated with compounds of this invention at indicated concentrations and incubated for 24 hours at 37° C. in a humidified atmosphere of 5% CO2 and 95% air. EL-4 cells were pretreated with test compounds (RORγ modulators) and stimulated with PMA (10 ng/mL) and ionomycin (1 μM final concentration) in the presence of test compound concentrations for additional 24 h at 37° C. in a humidified atmosphere of 5% CO2 and 95% air. Subsequently, supernatants were collected (after centrifugation at 300 g for 10 minutes) to determine the concentrations of IL-17 by HTRF (CisBio, France) or ELISA (R&D Systems Europe) according to the manufacturer's protocols.

`Cc1ccc(C(NC(=O)Cc2ccc3[nH]cc(CC(=O)N(C)C)c3c2)c2ccccc2)c(N2CCOCC2)c1` (centres unmarked) [compound 112, N,N-dimethyl-2-{5-[({[4-methyl-2-(morpholin-4-yl)phenyl](phenyl)methyl}carbamoyl)methyl]-1H-indol-3-yl}acetamide]: the values for the half-maximal inhibitory concentration (IC50) (in assay [1]; against human RORγt) were less than 1000 nM and 1000 to 10000 nM, respectively.

`Cc1ccc(N2CCCCC2)c(C(NC(=O)Cc2ccc3[nH]cc(CCC(=O)O)c3c2)c2ccccc2)c1` (centres unmarked) [compound 114, 3-{5-[({[5-methyl-2-(piperidin-1-yl)phenyl](phenyl)methyl}carbamoyl)methyl]-1H-indol-3-yl}propanoic acid]: the results for the IC50 (in assay [1]; at human RORγt) were less than 1000 nM and 1000 to 10000 nM, respectively.

Take `CNC(=O)CCc1c[nH]c2ccc(CC(=O)NC(c3ccccc3)c3ccccc3N3CCCCC3)cc12` (centres unmarked) [compound 115, N-methyl-3-{5-[({phenyl[2-(piperidin-1-yl)phenyl]methyl}carbamoyl)methyl]-1H-indol-3-yl}propanamide]: the IC50 is less than 1000 nM in assay [1] and 1000 to 10000 nM against human RORγt.

`O=C(O)CCc1c[nH]c2ccc(CC(=O)NC(c3ccccc3)c3cc(Br)ccc3N3CCCC3)cc12` (centres unmarked) [compound 117, 3-{5-[({[5-bromo-2-(pyrrolidin-1-yl)phenyl](phenyl)methyl}carbamoyl)methyl]-1H-indol-3-yl}propanoic acid]: the results for the IC50 (in assay [1]; on human RORγt) were less than 1000 nM and 10000 to 30000 nM, respectively.

`CCNc1cc(C)ccc1C(NC(=O)Cc1ccc2[nH]cc(CCC(=O)O)c2c1)c1ccccc1` (centres unmarked) [compound 120, 3-{5-[({[2-(ethylamino)-4-methylphenyl](phenyl)methyl}carbamoyl)methyl]-1H-indol-3-yl}propanoic acid]: the IC50 is less than 1000 nM in assay [1] and 1000 to 10000 nM against human RORγt.

For the compound `Cc1ccc(C(NC(=O)Cc2ccc3[nH]cc(CCC(=O)O)c3c2)c2ccccc2)c(NC(C)C)c1` (centres unmarked) [compound 126, 3-(5-{[({4-methyl-2-[(propan-2-yl)amino]phenyl}(phenyl)methyl)carbamoyl]methyl}-1H-indol-3-yl)propanoic acid], the IC50 in assay [1] was less than 1000 nM; on human RORγt, 1000 to 10000 nM.

Consider `COc1ccc(N2CCCCC2)c(C(NC(=O)Cc2ccc3[nH]cc(CCC(=O)O)c3c2)c2ccccc2)c1` (centres unmarked) [compound 136, 3-{5-[({[5-methoxy-2-(piperidin-1-yl)phenyl](phenyl)methyl}carbamoyl)methyl]-1H-indol-3-yl}propanoic acid], for which the IC50 was less than 1000 nM in assay [1] and 1000 to 10000 nM on human RORγt.

On to `Cc1ccc(C(NC(=O)Cc2ccc3[nH]cc(CCC(=O)O)c3c2)c2ccc(C)s2)c(N2CCCCC2)c1` (centres unmarked) [compound 138, 3-{5-[({[4-methyl-2-(piperidin-1-yl)phenyl](5-methylthiophen-2-yl)methyl}carbamoyl)methyl]-1H-indol-3-yl}propanoic acid], for which the IC50 in assay [1] is less than 1000 nM; at human RORγt, 1000 to 10000 nM.

For the compound `Cc1ccc(C(NC(=O)Cc2ccc3[nH]cc(CCC(=O)O)c3c2)c2nccs2)c(N2CCCCC2)c1` (centres unmarked) [compound 140, 3-{5-[({[4-methyl-2-(piperidin-1-yl)phenyl](1,3-thiazol-2-yl)methyl}carbamoyl)methyl]-1H-indol-3-yl}propanoic acid], the values for the IC50 (in assay [1]; on human RORγt) were less than 1000 nM and 1000 to 10000 nM, respectively.

Consider `COc1ccc(C(NC(=O)Cc2ccc3[nH]cc(CCC(=O)O)c3c2)c2ccccc2)c(N2CCCCCC2)c1` (centres unmarked) [compound 142, 3-{5-[({[2-(azepan-1-yl)-4-methoxyphenyl](phenyl)methyl}carbamoyl)methyl]-1H-indol-3-yl}propanoic acid], for which the results for the IC50 (in assay [1]; at human RORγt) were less than 1000 nM and 1000 to 10000 nM, respectively.

For `O=C(O)CCc1c[nH]c2ccc(CC(=O)NC3(c4ccccc4N4CCCCC4)CCCCC3)cc12` [compound 144, 3-{5-[({1-[2-(piperidin-1-yl)phenyl]cyclohexyl}carbamoyl)methyl]-1H-indol-3-yl}propanoic acid], the IC50 in assay [1] is less than 1000 nM; on human RORγt, 1000 to 10000 nM.

On to `Cc1ccc(C(NC(=O)Cc2ccc3[nH]cc(CCC(=O)O)c3c2)c2ccccc2)c(OC(C)C)c1` (centres unmarked) [compound 146, 3-{5-[({[4-methyl-2-(propan-2-yloxy)phenyl](phenyl)methyl}carbamoyl)methyl]-1H-indol-3-yl}propanoic acid], for which the figures for the IC50 (in assay [1]; against human RORγt) were less than 1000 nM and 1000 to 10000 nM, respectively.

For `Cc1ccc(C(NC(=O)Cc2ccc3[nH]cc(CCC(=O)O)c3c2)c2ccccc2N2CCCCC2)o1` (centres unmarked) [compound 148, 3-[5-({[(5-methylfuran-2-yl)[2-(piperidin-1-yl)phenyl]methyl]carbamoyl}methyl)-1H-indol-3-yl]propanoic acid], the values for the IC50 (in assay [1]; at human RORγt) were less than 1000 nM and 1000 to 10000 nM, respectively.

With `CCOc1ccc(C(NC(=O)Cc2ccc3[nH]cc(CCC(=O)O)c3c2)c2ccccc2)c(N2CCCCC2)c1` (centres unmarked) [compound 150, 3-{5-[({[4-ethoxy-2-(piperidin-1-yl)phenyl](phenyl)methyl}carbamoyl)methyl]-1H-indol-3-yl}propanoic acid], the results for the IC50 (in assay [1]; at human RORγt) were less than 1000 nM and 1000 to 10000 nM, respectively.

`CC(C)Oc1ccc(C(NC(=O)Cc2ccc3[nH]cc(CCC(=O)O)c3c2)c2ccccc2)c(N2CCCCC2)c1` (centres unmarked) [compound 152, 3-{5-[({phenyl[2-(piperidin-1-yl)-4-(propan-2-yloxy)phenyl]methyl}carbamoyl)methyl]-1H-indol-3-yl}propanoic acid]: the figures for the IC50 (in assay [1]; on human RORγt) were less than 1000 nM and 10000 to 30000 nM, respectively.

As for `Cc1cccc(C(NC(=O)Cc2ccc3[nH]cc(CCC(=O)O)c3c2)c2ccccc2N2CCCCC2)c1` (centres unmarked) [compound 158, 3-[5-({[(3-methylphenyl)[2-(piperidin-1-yl)phenyl]methyl]carbamoyl}methyl)-1H-indol-3-yl]propanoic acid], the results for the IC50 (in assay [1]; against human RORγt) were less than 1000 nM and 1000 to 10000 nM, respectively.

Regarding `Cc1ccc(C(NC(=O)Cc2ccc3[nH]nc(CCC(=O)O)c3c2)c2ccccc2)c(OC(C)C)c1` (centres unmarked) [compound 160, 3-{5-[({[4-methyl-2-(propan-2-yloxy)phenyl](phenyl)methyl}carbamoyl)methyl]-1H-indazol-3-yl}propanoic acid], the IC50 in assay [1] is less than 1000 nM; against human RORγt it was 10000 to 30000 nM.

For `O=C(O)CCc1c[nH]c2ccc(CC(=O)NC(CC3CCCCC3)c3ccccc3N3CCCCC3)cc12` (centres unmarked) [compound 162, 3-{5-[({2-cyclohexyl-1-[2-(piperidin-1-yl)phenyl]ethyl}carbamoyl)methyl]-1H-indol-3-yl}propanoic acid], the IC50 (in assay [1]; at human RORγt) was 1000 to 10000 nM in each case.

For `CCN(CC)c1ccccc1C(CC(C)C)NC(=O)Cc1ccc2[nH]cc(CCC(=O)O)c2c1` (centres unmarked) [compound 174, 3-{5-[({1-[2-(diethylamino)phenyl]-3-methylbutyl}carbamoyl)methyl]-1H-indol-3-yl}propanoic acid], the IC50 (in assay [1]; at human RORγt) was 1000 to 10000 nM each time.

Consider `CC(C)(C)CC(NC(=O)Cc1ccc2[nH]cc(CCC(=O)O)c2c1)c1ccccc1N1CCCCC1` (centres unmarked) [compound 186, 3-{5-[({3,3-dimethyl-1-[2-(piperidin-1-yl)phenyl]butyl}carbamoyl)methyl]-1H-indol-3-yl}propanoic acid], for which the IC50 in assay [1] is less than 1000 nM; against human RORγt, 1000 to 10000 nM.

Regarding `Cc1ccc(C(NC(=O)Cc2ccc3[nH]cc(CCC(=O)O)c3c2)c2ccccc2N2CCCCC2)cc1` (centres unmarked) [compound 188, 3-[5-({[(4-methylphenyl)[2-(piperidin-1-yl)phenyl]methyl]carbamoyl}methyl)-1H-indol-3-yl]propanoic acid], the IC50 in assay [1] was less than 1000 nM; at human RORγt, 10000 to 30000 nM.

Consider `CC(C)CC(NC(=O)Cc1ccc2[nH]cc(CCC(=O)O)c2c1)c1ccccc1N1CCCCCC1` (centres unmarked) [compound 198, 3-{5-[({1-[2-(azepan-1-yl)phenyl]-3-methylbutyl}carbamoyl)methyl]-1H-indol-3-yl}propanoic acid], for which the IC50 is less than 1000 nM in assay [1] and 1000 to 10000 nM against human RORγt.

The values are drawn from patent US9902725B2, “Heterocyclic derivatives as RORgamma modulators” (GENFIT, priority 2014, dated 2018).
